This test addresses Sushi domains (SD1/2) protein. Put plainly: Fluorescence polarization (FP) competition assay with AJAP-1probe, calculated Ki. In kind it is binding. The gist of the method: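 Competition against 25 nM TAMRA-labelled peptide probe binding SD1/2, in PBS pH 7.4 with 1% BSA at rt, read at 530/580 nm. IC50 from sigmoidal dose-response fits, at least triplicate; Ki calculated from IC50 using probe Kd from saturation binding.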

Setting [1] is: Table 11, deep mutational scanning validation variants of AJAP-1WT, read-out: Ki (nM) mean ± SEM.
[2] abbreviates: Table 1, affinity maturation, mean ± SEM, n ≥ 3, read-out: Ki.
Setting [3] is: Table 13, peptides for affinity maturation, read-out: Ki (nM) mean ± SEM.
Setting [4] is: Table 6, elongation and truncation scan of PIANP binding epitope, read-out: Ki (nM) mean ± SEM.
Where [5] appears, read: Table 16, ncAAs incorporated peptides, read-out: Ki (nM) mean ± SEM.
Where [6] appears, read: Table 12, deep mutational scanning validation variants of PIANPWT, read-out: Ki (nM) mean ± SEM.

Like-named read-outs stand apart in the source and are kept apart here. Non-standard residues stand in square brackets, D forms with d. Residues, ends and D or L forms follow the SMILES beside them. 1Nal = N[C@@H](Cc1cccc2ccccc12)C(=O)O; Cya = N[C@@H](CS(=O)(=O)O)C(=O)O; NMeI = CC[C@H](C)[C@H](NC)C(=O)O

Consider `CC[C@H](C)[C@H](NC(=O)[C@H](Cc1ccccc1)NC(=O)[C@H](CCC(=O)O)NC(=O)[C@@H](NC(=O)[C@H](CCC(=O)O)NC(C)=O)[C@@H](C)O)C(=O)N[C@@H](C)C(=O)N[C@@H](Cc1c[nH]c2ccccc12)C(=O)NCC(=O)N1CCC[C@H]1C(=O)N[C@H](C(=O)NCC(=O)N[C@@H](CC(=O)O)C(=O)N[C@@H](CCC(=O)O)C(=O)N[C@@H](CCC(N)=O)C(N)=O)[C@@H](C)O` (Ac-ETEFIAWGPTGDEQ-NH2), for which the Ki under setting [1] was 37 ± 2 nM. As for `CC[C@H](C)[C@H](NC(=O)[C@H](Cc1ccc(O)cc1)NC(=O)[C@H](CC(=O)O)NC(=O)[C@H](CC(=O)O)NC(=O)[C@H](CCC(=O)O)NC(C)=O)C(=O)N[C@@H](CC(=O)O)C(=O)N[C@@H](Cc1c[nH]c2ccccc12)C(=O)NCC(=O)N1CCC[C@H]1C(=O)N[C@H](C(=O)N[C@@H](CO)C(=O)N[C@@H](CC(=O)O)C(=O)N[C@@H](CC(=O)O)C(=O)N[C@@H](CC(=O)O)C(N)=O)[C@@H](C)O` [Peptide 19] (Ac-EDDYIDWGPTSDDD-NH2), the Ki runs as follows: under setting [2], 3.8 ± 0.2 nM; under setting [3], 3.8 ± 0.2 nM.

Consider `CC(=O)N[C@@H](CCC(=O)O)C(=O)N[C@@H](CC(=O)O)C(=O)N[C@@H](CC(=O)O)C(=O)N[C@@H](CO)C(=O)N[C@@H](C)C(=O)N[C@H](C(=O)N[C@@H](Cc1c[nH]c2ccccc12)C(=O)N[C@@H](Cc1c[nH]c2ccccc12)C(=O)NCC(=O)NCC(=O)N[C@@H](C)C(=O)N[C@@H](CC(=O)O)C(=O)N[C@H](C(=O)N[C@@H](CC(=O)O)C(N)=O)[C@@H](C)O)C(C)C` (Ac-EDDSAVWWGGADTD-NH2), for which the Ki (Table 7, Ala-, D-amino acids and N-methylation scans of APPWT, read-out: Ki (nM) mean ± SEM) was 3076 ± 22 nM.

Regarding `CC(=O)N[C@@H](CCC(=O)O)C(=O)N[C@@H](CC(=O)O)C(=O)N[C@@H](CC(=O)O)C(=O)N[C@@H](CO)C(=O)N[C@@H](CC(=O)O)C(=O)N[C@H](C(=O)N[C@@H](Cc1c[nH]c2ccccc12)C(=O)N[C@@H](Cc1c[nH]c2ccccc12)C(=O)NCC(=O)NCC(=O)N[C@@H](Cc1c[nH]cn1)C(=O)N[C@@H](CC(=O)O)C(=O)N[C@H](C(=O)N[C@@H](CC(=O)O)C(N)=O)[C@@H](C)O)C(C)C` (Ac-EDDSDVWWGGHDTD-NH2), for the setting “Table 10, deep mutational scanning validation variants of APPWT, read-out: Ki (nM) mean ± SEM”, the Ki is 346 ± 6 nM.

Turning to `CC[C@H](C)[C@@H](C(=O)N[C@H](C(=O)N[C@@H](Cc1c[nH]c2ccccc12)C(=O)NCC(=O)N1CCC[C@H]1C(=O)N[C@H](C(=O)N[C@H](C(=O)N[C@@H](CO)C(=O)N[C@@H](CCCNC(=N)N)C(=O)N[C@@H](CCC(=O)O)C(=O)N[C@@H](CC(=O)O)C(N)=O)C(C)C)[C@@H](C)O)C(C)C)N(C)C(=O)[C@H](C)NC(=O)[C@H](Cc1c[nH]c2ccccc12)NC(=O)[C@@H]1CCCN1C(C)=O` [PWA(N-Me-I)VWGPTVSRED] (Ac-PWA[NMeI]VWGPTVSRED-NH2), the Ki (Table 9, Ala-, D-amino acids and N-methylation scans of PIANPWT, read-out: Ki (nM) mean ± SEM) is 370 ± 5 nM.

Turning to `CC[C@H](C)[C@H](NC(=O)[C@H](C)NC(=O)[C@H](Cc1c[nH]c2ccccc12)NC(=O)[C@@H]1CCCN1C(C)=O)C(=O)N[C@H](C(=O)N[C@@H](Cc1c[nH]c2ccccc12)C(=O)NCC(=O)N1CCC[C@H]1C(=O)N[C@H](C(=O)N[C@H](C(=O)N[C@@H](CO)C(=O)N[C@@H](CCCNC(=N)N)C(=O)N[C@@H](CCC(=O)O)C(N)=O)C(C)C)[C@@H](C)O)C(C)C` (Ac-PWAIVWGPTVSRE-NH2), the Ki under setting [4] is 650 ± 9 nM. On the same count and under the same terms, as for `CC[C@H](C)[C@H](NC(=O)[C@H](C)NC(=O)[C@H](Cc1c[nH]c2ccccc12)NC(=O)[C@@H]1CCCN1C(C)=O)C(=O)N[C@H](C(=O)N[C@@H](Cc1c[nH]c2ccccc12)C(=O)NCC(=O)N1CCC[C@H]1C(=O)N[C@H](C(=O)N[C@H](C(=O)N[C@@H](CO)C(N)=O)C(C)C)[C@@H](C)O)C(C)C` (Ac-PWAIVWGPTVS-NH2), the figure is 463 ± 10 nM. Regarding `CC[C@H](C)[C@H](NC(=O)[C@H](Cc1ccccc1)NC(=O)[C@H](CCC(=O)O)NC(=O)[C@@H](NC(=O)[C@H](CCC(=O)O)NC(C)=O)[C@@H](C)O)C(=O)N[C@@H](CS(=O)(=O)O)C(=O)N[C@@H](Cc1c[nH]c2ccccc12)C(=O)NCC(=O)N1CCC[C@H]1C(=O)N[C@H](C(=O)NCC(=O)N[C@@H](CC(=O)O)C(=O)N[C@@H](CCC(=O)O)C(=O)N[C@@H](CC(=O)O)C(N)=O)[C@@H](C)O` [ETEFI(Cya)WGPTGDED, Ac-ETEFI(Cya)WGPTGDED-NH2] (Ac-ETEFI[Cya]WGPTGDED-NH2), the Ki is 12 ± 0.3 nM under setting [5] and 11.8 nM (purified peptides, read-out: Ki). Consider `CC[C@H](C)[C@H](NC(=O)[C@H](Cc1c[nH]c2ccccc12)NC(=O)[C@H](CO)NC(=O)[C@H](CC(=O)O)NC(=O)[C@H](CC(=O)O)NC(=O)[C@H](CCC(=O)O)NC(C)=O)C(=O)N[C@@H](Cc1c[nH]c2ccccc12)C(=O)N[C@@H](Cc1c[nH]c2ccccc12)C(=O)NCC(=O)N1CCC[C@H]1C(=O)N[C@H](C(=O)NCC(=O)N[C@@H](CC(=O)O)C(=O)N[C@@H](CCC(=O)O)C(=O)N[C@@H](CC(=O)O)C(N)=O)[C@@H](C)O` [Peptide 27, Ac-EDDSWIWWGPTGDED-NH2] (Ac-EDDSWIWWGPTGDED-NH2), for which the Ki is, setting by setting: under setting [2], 16 ± 1 nM; under setting [3], 16 ± 1 nM. For the same molecule, where the note is “comparator printed as 9”, the “fold better affinity than 9” value is 3.8 fold. Regarding `CC[C@H](C)[C@H](NC(=O)[C@@H](NC(=O)[C@H](Cc1c[nH]c2ccccc12)NC(=O)[C@@H]1CCCN1C(C)=O)C(C)C)C(=O)N[C@H](C(=O)N[C@@H](Cc1c[nH]c2ccccc12)C(=O)NCC(=O)N1CCC[C@H]1C(=O)N[C@H](C(=O)N[C@H](C(=O)N[C@@H](CO)C(=O)N[C@@H](CCCNC(=N)N)C(=O)N[C@@H](CCC(=O)O)C(=O)N[C@@H](CC(=O)O)C(N)=O)C(C)C)[C@@H](C)O)C(C)C` [PWVIVWGPTVSRED] (Ac-PWVIVWGPTVSRED-NH2), under setting [6], the Ki is 302 ± 4 nM. Turning to `CC[C@H](C)[C@H](NC(=O)[C@H](C)NC(=O)[C@H](CO)NC(=O)[C@@H]1CCCN1C(C)=O)C(=O)N[C@H](C(=O)N[C@@H](Cc1c[nH]c2ccccc12)C(=O)NCC(=O)N1CCC[C@H]1C(=O)N[C@H](C(=O)N[C@H](C(=O)N[C@@H](CO)C(=O)N[C@@H](CCCNC(=N)N)C(=O)N[C@@H](CCC(=O)O)C(=O)N[C@@H](CC(=O)O)C(N)=O)C(C)C)[C@@H](C)O)C(C)C` [PSAIVWGPTVSRED] (Ac-PSAIVWGPTVSRED-NH2), the Ki under setting [6] was 906 ± 20 nM. Regarding `CC[C@H](C)[C@H](NC(=O)[C@H](Cc1ccccc1)NC(=O)[C@H](CCC(=O)O)NC(=O)[C@@H](NC(=O)[C@H](CCC(=O)O)NC(=O)[C@@H](NC(C)=O)[C@@H](C)O)[C@@H](C)O)C(=O)N[C@@H](C)C(=O)N[C@@H](Cc1c[nH]c2ccccc12)C(=O)NCC(=O)N1CCC[C@H]1C(=O)N[C@H](C(N)=O)[C@@H](C)O` (Ac-TETEFIAWGPT-NH2), the Ki (Table 5, elongation and truncation scan of AJAP-1 binding epitope, read-out: Ki (nM) mean ± SEM) was 236 ± 9 nM. As for `CC[C@H](C)[C@H](NC(=O)[C@H](Cc1ccccc1)NC(=O)[C@H](CCC(=O)O)NC(=O)[C@@H](NC(=O)[C@H](CCC(=O)O)NC(C)=O)[C@@H](C)O)C(=O)N[C@@H](C)C(=O)N[C@@H](Cc1c[nH]c2ccccc12)C(=O)NCC(=O)N1CCC[C@H]1C(=O)N[C@H](C(=O)NCC(=O)N[C@@H](C)C(=O)N[C@@H](CCC(=O)O)C(=O)N[C@@H](CC(=O)O)C(N)=O)[C@@H](C)O` [ETEFIAWGPTGAED] (Ac-ETEFIAWGPTGAED-NH2), where the note is “Table 8, Ala-, D-amino acids and N-methylation scans of AJAP-1WT, read-out: Ki (nM) mean ± SEM”, the Ki is 50 ± 1 nM. As for `CC[C@H](C)[C@H](NC(=O)[C@H](Cc1ccc(O)cc1)NC(=O)[C@H](CCC(=O)O)NC(=O)[C@@H](NC(=O)[C@H](CCC(=O)O)NC(C)=O)[C@@H](C)O)C(=O)N[C@@H](C)C(=O)N[C@@H](Cc1c[nH]c2ccccc12)C(=O)NCC(=O)N1CCC[C@H]1C(=O)N[C@H](C(=O)NCC(=O)N[C@@H](CC(=O)O)C(=O)N[C@@H](CCC(=O)O)C(=O)N[C@@H](CC(=O)O)C(N)=O)[C@@H](C)O` [ETEYIAWGPTGDED, Ac-ETEYIAWGPTGDED-NH2] (Ac-ETEYIAWGPTGDED-NH2), the Ki under setting [1] was 18 ± 1 nM. In the case of `CC(=O)N[C@@H](CCC(=O)O)C(=O)N[C@@H](CC(=O)O)C(=O)N[C@@H](CC(=O)O)C(=O)N[C@@H](CO)C(=O)N[C@@H](CC(=O)O)C(=O)N[C@H](C(=O)N[C@@H](Cc1c[nH]c2ccccc12)C(=O)N[C@@H](Cc1cccc2ccccc12)C(=O)NCC(=O)NCC(=O)N[C@@H](C)C(=O)N[C@@H](CC(=O)O)C(=O)N[C@H](C(=O)N[C@@H](CC(=O)O)C(N)=O)[C@@H](C)O)C(C)C` [EDDSDVW(1Nala)GGADTD] (Ac-EDDSDVW[1Nal]GGADTD-NH2), the Ki under setting [5] is 499 ± 17 nM. Turning to `CC[C@H](C)[C@H](NC(=O)[C@H](Cc1ccccc1)NC(=O)[C@H](CC(=O)O)NC(=O)[C@@H](NC(=O)[C@H](CCC(=O)O)NC(C)=O)[C@@H](C)O)C(=O)N[C@@H](C)C(=O)N[C@@H](Cc1c[nH]c2ccccc12)C(=O)NCC(=O)N1CCC[C@H]1C(=O)N[C@H](C(=O)NCC(=O)N[C@@H](CC(=O)O)C(=O)N[C@@H](CCC(=O)O)C(=O)N[C@@H](CC(=O)O)C(N)=O)[C@@H](C)O` [ETDFIAWGPTGDED] (Ac-ETDFIAWGPTGDED-NH2), under setting [1], the Ki is 26 ± 1 nM. In the case of `CC(=O)N[C@@H](CCC(=O)O)C(=O)N[C@@H](CCC(=O)O)C(=O)N[C@@H](CC(=O)O)C(=O)N[C@@H](CC(=O)O)C(=O)N[C@@H](CO)C(=O)N[C@@H](CC(=O)O)C(=O)N[C@H](C(=O)N[C@@H](Cc1c[nH]c2ccccc12)C(=O)N[C@@H](Cc1c[nH]c2ccccc12)C(=O)NCC(=O)NCC(=O)N[C@@H](C)C(=O)N[C@@H](CC(=O)O)C(=O)N[C@H](C(=O)N[C@@H](CC(=O)O)C(=O)N[C@@H](Cc1ccc(O)cc1)C(=O)N[C@@H](C)C(=O)N[C@@H](CC(=O)O)C(=O)NCC(N)=O)[C@@H](C)O)C(C)C` (Ac-EEDDSDVWWGGADTDYADG-NH2), the Ki (Table 4, truncation and elongation scans of APP epitope, read-out: Ki (nM) mean ± SEM) is 343 ± 17 nM.
